Results on one molecule are retold here after patent publication US20240050392A1, “COMPOSITIONS AND METHODS FOR IMPROVED TREATMENT OF PLATINUM-BASED CHEMOTHERAPEUTIC RESISTANT TUMORS” (THE REGENTS OF THE UNIVERSITY OF THE COLORADO, A BODY …, priority 2021, published 2024).

Structures are written as SMILES.

For series [1], the system named is TCCSUP cells. Kind of series: Intracellular cisplatin measurements using CyTOF in TCCSUP cells. The format is cell-based, human. As to the method:
To validate the role of LRRC8D in cisplatin import, intracellular cisplatin was measured in the TCCSUP cells. […] In contrast to the KU1919, 5637, and T24 cells (FIGS. 12C-12E), NPEPPS knockdown had very little effect on the GemCis-resistant cells (median Pt 195=28) (FIGS. 12I-12J) given that the TCCSUP-GemCis cells have a focal deletion of LRRC8D (FIGS. 9A-9B). However, when LRRC8D was overexpressed, cisplatin import was restored to the levels of the parental cell line (FIG. 12K).
shRNA-mediated knockdown experiments. Lentiviral production and transduction were carried out as follows. In brief, plasmids from the RNAi Consortium (TRC) collection (TRC construct numbers TRCN0000073838, TRCN0000073839 and TRCN0000073840) were used for targeting NPEPPS were selected based on predicted knockdown efficiency; non-targeting controls used were SHC002 and SHC016. 2 μg of target shRNA construct and 2 μg of 3:1 ratio of psPAX2 (Addgene) and pMD2.G (Addgene) were transfected into HEK293FT cells using 2 μg of Polyethylenimine (Polysciences). Lentiviral particles containing media was filtered using 0.45 μm cellulose acetate syringe filter and used for transduction. Puromycin selection was performed at doses used for CRISPR library screening or in some cases, cells were re-selected with higher doses of puromycin (10 μg/mL), in order to ensure complete elimination of non-transduced cells. Selected cells were frozen at early passage and early passage cells were used for all experiments.
Intracellular cisplatin measurements using CyTOF. Cell lines were cultured for several passages in IMDM+10% FBS. […] After dissociation, cells were counted by Trypan blue staining and then placed in separate tubes at 3×10^5 cells. […] Relative cisplatin intensity (defined by ^195Platinum isotopic mass intensity) was analyzed among nucleated ^191Iridium+^193Iridium+events defined by Boolean gating within FlowJo 10.7.1.

For series [2], the system named is bladder tumor-derived organoids. As to the kind of experiment: Tumor-derived organoid drug screening (alamarBlue viability, reseeding). The format is cell-based, human. As to the method: Three independent organoid models derived from patients that failed between 4 to 6 cycles of neoadjuvant gemcitabine plus cisplatin chemotherapy (FIG. 10A). The organoids mimicked the morphological and genomic characteristics of the tumor from which they were derived (FIG. 10B). These organoids were treated with increasing doses of cisplatin and 20 μM of tosedostat.
Tumor-derived Organoids. Culture of the organoids. Human bladder tissue was obtained from the Erasmus MC Bladder Cancer Center, Rotterdam, the Netherlands. Bladder tumor-derived organoids from biopsies obtained through TURBT or cystectomy. Briefly, bladder tissues were washed with Advanced DMEM/F12 (Gibco) supplemented with 10 mM HEPES (Gibco), 1% GlutaMax (Gibco) and 100 μg/ml primocin (InvivoGen), henceforth Ad+++. Tissue was minced and incubated at 37° C. with the digestion solution (collagenase 2.5 mg/ml in EBSS) and isolated cells were passed through […] strainer (Falcon), washed with Ad+++ and seeded in 50 μl drops of BME (R&D system) containing 10000-15000 cells in 24 well suspension plates (Greiner). Bladder tumor organoids were cultured in a culture medium containing Ad+++ supplemented with 1×B-27 (Gibco), 1.25 mM N-acetylcysteine (Sigma), 10 mM nicotinamide, 20 μM TGFβ receptor inhibitor A83-01, 100 ng/ml recombinant human FGF10 (Peprotech), 25 ng/ml recombinant human FGF7 (Peprotech), 12.5 ng/ml recombinant human FGF2 (Peprotech), 10 μM Y27632 Rho Kinase (ROCK) Inhibitor (Sigma) and conditioned media for recombinant Rspondin (2.5% v/v), and Wnt3A (2.5% v/v). The medium was changed every three days. Organoids were passaged at a 1:3 to 1:6 ratio every 7 days using cell dissociation solution-non enzymatic (Sigma) and plated in fresh BME matrix droplets.
Drug screening. Organoids were collected 7 days after passaging, passed through a […] strainer and 1000 organoids were seeded per well of a 48-well plate in BME matrix droplets. After 24 hours cisplatin (Sigma) resuspended in PBS was added at different concentrations (2, 10, 25, and 50 μM) with or without tosedostat (20 μM) (Tocris) resuspended in DMSO. All wells were adjusted to contain less than 0.7% DMSO. Organoids were cultured for the first 6 days in the presence of drugs followed by drug withdrawal, where organoids were grown in organoid culture media for 10 days. The entire content of the wells in different treatment groups was collected, washed and reseeded after disaggregation in fresh BME, and cultured for 6 days. Cell viability was assayed using alamarBlue (Invitrogen) according to the manufacturer's instructions after 6 days of drug incubation, 10 days of drug withdrawal, and 6 days post reseeding. Viability data was normalized using organoid wells treated with vehicle control.
(The colour change of resazurin is a common sign of viable cells or microbes.)

Series [3] relates to NPEPPS mRNA. As to the kind of experiment: Cisplatin induced NPEPPS mRNA expression (RT-qPCR). The format is cell-based, human. As to the method:
Cisplatin induced NPEPPS mRNA expression. Total RNA was isolated from cells using Trizol (ThermoFisher) and/or phenol-chloroform based extraction methods. Residual DNA was digested with DNAse I (Life technologies). cDNA synthesis was performed using Superscript II Reverse Transcriptase kit (Life technologies) using random primers. RT-qPCR reactions were performed on a CFX Connect Real-Time PCR Detection System thermocycler (Bio-Rad) using TaqMan gene expression assays for NPEPPS and HMBS as a housekeeping gene (ThermoFisher) in combination with SensiFAST Probe No-ROX Kit (Bioline, Toronto, Canada). Expression data was calculated using 2^−ΔΔCt. All cell line experiments were performed in triplicate from independently grown cells. Comparisons at the indicated dose of cisplatin were made to the control treatment (0 μM cisplatin) using a t-test.
On the technique in general: Quantitative PCR measures a nucleic acid by following its amplification.

The subject of series [4] is KU1919-GemCis and KU1919 parental cells. Kind of series: Drug dose response with NPEPPS knockdown or overexpression. The format is cell-based, human.
For series [5] the following is noted: cited from earlier work.

Take `N.N.[Cl][Pt][Cl]` [cisplatin]: the “intracellular cisplatin, median Pt 195” value in series [1] (TCCSUP parental cells) was 189; in series [1] (TCCSUP-GemCis cells), 22; in series [1] (TCCSUP-GemCis cells, NPEPPS knockdown), 28. For the same molecule, the “organoid growth after reseeding in new growth conditions” value in series [2] (2 μM cisplatin alone) is “able to re-grow”. The organoid killing result in series [2] (cisplatin alone at 25 μM) is reported as “all organoids were killed”. Besides, in series [3] (KU1919-Par and KU1919-GemCis cells after 24 hours of cisplatin treatment), the “NPEPPS mRNA” value is “increased”. The NPEPPS induction entry in series [3] (patient-derived organoids treated with cisplatin) is on record as “induced NPEPPS in a dose dependent manner”. In addition, the “effect of NPEPPS knockdown on drug response” value in series [4] (KU1919-GemCis cells, stable NPEPPS shRNA knockdown) is reported as “preferentially enhanced response”. In addition, in series [4] (KU1919 parental lines overexpressing NPEPPS), the “effect of NPEPPS overexpression on drug response” value is reported as “increased treatment resistance”. The “maximum concentration of cisplatin in patients” value in series [5] is 14 µM.
